Experimental data reported in paper PMC10748408 (Frontiers in Oncology, 2023).

Legend:
tumor cells = assay: Cell cycle assay (PI, flow cytometry) of cells isolated from tumors; assay type: in vivo, BALB/c mice; details: 25 and 50 mg/kg bodyweight ART vs untreated tumor-bearing mice, p<0.05
Experimental: Cells (1 x 10^6) were isolated from tissues by collagenase-hyaluronidase digestion and fixed in ice-cold ethanol at -20°C. Samples were washed and resuspended in PBS containing 40 µg/mL RNase A for 1 hr. The cells were then stained with 30 µg/mL propidium iodide in the dark for 30 minutes and analyzed by flow cytometry using the BD Verse (BD Biosciences, USA). Data were analyzed using the BD FACSuite™ software ([35]).

MDA-MB-231 cells = assay: Apoptotic cells (Annexin-FITC/PI flow cytometry) with or without CLEC12A overexpression; assay type: cell-based, Human; details: MDA-MB-231, non-transfected, ART + (5 µM, 24 hours); without ART 0.5%
Experimental: (§1) Cells, isolated from normal and treated/untreated tumor tissues by collagenase-hyaluronidase digestion, were washed with Ca^2+-free PBS and stained with Annexin V binding buffer (1X). The cells were then incubated with Annexin V-FITC and propidium iodide (PI) for 15 minutes at 37°C. Cells were eventually analyzed on the BD FACS Aria III (Alexa Fluor at 488nm and PE at 570 nm, respectively). The percentage of apoptotic and necrotic cells were analyzed using the […]™ software (BD Biosciences, USA; [37]). For transfection, MDA-MB-231 and 4T1 cells were grown in a 6-well plate until they reached 70% confluency. CLEC12A-pcDNA recombinant/empty DNA plasmid (2500ng) or pcDNA empty vector (2500ng) was transfected into cells using 5μl Lipofectamine® 2000 reagent. […] Finally, transfection efficiency was confirmed by western blot analysis ([42]).

4T1 mammary tumors = assay: Tumor size, weight and volume in 4T1 mammary tumor model; assay type: in vivo, BALB/c mice; details: 12.5, 25 and 50 mg/kg body weight of ART vs untreated tumor-bearing mice
Experimental: Mouse mammary 4T1 cells in passage numbers between 7 and 12 (10^4 cells/ml in 50 µl PBS) were injected into the inguinal 4th mammary fat pad of BALB/c mice ([23], [24]). Normal mice received an equal volume of sterile PBS. A palpable tumor was allowed to develop for 14 days ([24]). […] Normal (mammary fat pad surrounding the 4th inguinal mammary pad), mammary tumor, and organs like lungs, kidney, liver, and blood were collected at the end of the experimental schedule. Body weight and tumor volume of each mouse were recorded daily during the tenure of the experiment. Tumor volume was calculated using the following formula: length (mm) × width^2 (mm) × 0.52 ([25]).

4T1 cells = assay: Apoptotic cells (Annexin-FITC/PI flow cytometry) with or without CLEC12A overexpression; assay type: cell-based, murine; details: 4T1, non-transfected, ART + (1 µM, 24 hours); without ART 0.2%
Experimental: as §1

[1] = system: cells isolated from the liver, kidney and lungs; assay: MTT viability of cells isolated from organs of treated mice; assay type: in vivo, BALB/c mice; details: MTT assay
Experimental: Tissue samples were immersed in 9 parts of serum-free DMEM and 1 part of enzyme cocktail. Digestion was performed at 37°C for 4 hours. Isolated cells were washed well to remove any remaining enzyme, resuspended in ice-cold PBS and filtered through a single cell mesh to dissociate cell clumps. Cell viability was checked using trypan blue dye exclusion test before using the cells for further assays ([21]). 1 x 10^5 viable cells were seeded in a 96-well plate. […] Following treatment, wells were washed to remove the media and 100 µl of PBS was added to each well. Finally, 10 µl of MTT solution (5 mg/mL in PBS) was added and incubated at 37°C for 3 hours. The purple crystals formed were dissolved in 150 µl of DMSO. Absorbance was measured at 570 nm in a multi-plate reader Varioskan™ Lux (Thermo Fisher Scientific, USA; [21]).

## C[C@@H]1CC[C@H]2[C@@H](C)C(=O)O[C@@H]3O[C@@]4(C)CC[C@@H]1[C@]32OO4 [ART, Artemisinin]
Tumor cells
  percentage of G2/M cell count: significant increase
MDA-MB-231 cells
  percentage of apoptotic cells: 22%
4T1 mammary tumors
  tumor weight and volume: Significant decrease
4T1 cells
  percentage of apoptotic cells: 11%
[1]; normal mice treated with ART
  viability of cells isolated from the liver, kidney and lungs: no loss of viability
[1]; tumor-bearing mice, increasing doses of ART
  viability of cells isolated from the liver, kidney and lungs: significantly increased cell viability
